Measured values: the supplement of paper PMC10307832

Key:
Assay in all cases: relative viability (nuclei count vs DMSO), 5 days (fraction); higher = more cells survive
LU99A = system: LU99A
Procedure, shortened: (§1)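 Lung cancer cell lines in 1536-well plates were dosed by pin tool the day after seeding, either with one drug alone or with a fixed anchor-drug dose plus five library-drug doses (not always all listed) in √10 steps. After 5 days, cells were fixed and their nuclei stained in one step (final 0.05% Triton X-100, 1% formaldehyde, 1 ug/ml Hoechst), then counted on 4× images. Relative viability is the nuclei count in treated wells divided by that in vehicle wells. Values are medians of duplicate plates.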

NCI-H1437 = system: NCI-H1437
Procedure, shortened: as §1

NCI-H460 = system: NCI-H460
Procedure, shortened: as §1

HCC-366 = system: HCC-366
Procedure, shortened: as §1

NCI-H1651 = system: NCI-H1651
Procedure, shortened: as §1

NCI-H358 = system: NCI-H358
Procedure, shortened: as §1

NCI-H1734 = system: NCI-H1734
Procedure, shortened: as §1

NCI-H1975 = system: NCI-H1975
Procedure, shortened: as §1

CAL-12T = system: CAL-12T
Procedure, shortened: as §1

NCI-H2085 = system: NCI-H2085
Procedure, shortened: as §1

NCI-H1793 = system: NCI-H1793
Procedure, shortened: as §1

NCI-H838 = system: NCI-H838
Procedure, shortened: as §1

NCI-H441 = system: NCI-H441
Procedure, shortened: as §1

NCI-H2342 = system: NCI-H2342
Procedure, shortened: as §1

NCI-H1355 = system: NCI-H1355
Procedure, shortened: as §1

LOU-NH91 = system: LOU-NH91
Procedure, shortened: as §1

BEN = system: BEN
Procedure, shortened: as §1

## COc1nc(C)cnc1NS(=O)(=O)c1cccnc1-c1ccc(-c2nnco2)cc1 [Zibotentan] + NC(=O)Nc1cc(-c2cccc(F)c2)sc1C(=O)N[C@H]1CCCNC1 [AZD7762] (partner 0.2 µM)
LU99A; first compound 0.08 µM
  relative viability: 0.425
LU99A; first compound 0.253 µM
  relative viability: 0.412
LU99A; first compound 0.8 µM
  relative viability: 0.228
LU99A; first compound 2.53 µM
  relative viability: 0.429
NCI-H1437; first compound 0.08 µM
  relative viability: 1.14
NCI-H1437; first compound 0.253 µM
  relative viability: 0.897
NCI-H1437; first compound 0.8 µM
  relative viability: 1.05
NCI-H1437; first compound 2.53 µM
  relative viability: 1.15
NCI-H460; first compound 0.08 µM
  relative viability: 0.784
NCI-H460; first compound 0.253 µM
  relative viability: 0.539
NCI-H460; first compound 0.8 µM
  relative viability: 0.251
NCI-H460; first compound 2.53 µM
  relative viability: 0.749
HCC-366; first compound 0.08 µM
  relative viability: 0.28
HCC-366; first compound 0.253 µM
  relative viability: 0.208
HCC-366; first compound 0.8 µM
  relative viability: 0.103
HCC-366; first compound 2.53 µM
  relative viability: 0.343
NCI-H1651; first compound 0.08 µM
  relative viability: 0.448
NCI-H1651; first compound 0.253 µM
  relative viability: 0.389
NCI-H1651; first compound 0.8 µM
  relative viability: 0.446
NCI-H1651; first compound 2.53 µM
  relative viability: 0.419
NCI-H358; first compound 0.08 µM
  relative viability: 0.48
NCI-H358; first compound 0.253 µM
  relative viability: 0.405
NCI-H358; first compound 0.8 µM
  relative viability: 0.383
NCI-H358; first compound 2.53 µM
  relative viability: 0.667
NCI-H1734; first compound 0.08 µM
  relative viability: 0.629
NCI-H1734; first compound 0.253 µM
  relative viability: 0.521
NCI-H1734; first compound 0.8 µM
  relative viability: 0.499
NCI-H1734; first compound 2.53 µM
  relative viability: 0.55
NCI-H1975; first compound 0.08 µM
  relative viability: 0.767
NCI-H1975; first compound 0.253 µM
  relative viability: 0.626
NCI-H1975; first compound 0.8 µM
  relative viability: 0.728
NCI-H1975; first compound 2.53 µM
  relative viability: 0.659
CAL-12T; first compound 0.08 µM
  relative viability: 0.604
CAL-12T; first compound 0.253 µM
  relative viability: 0.498
CAL-12T; first compound 0.8 µM
  relative viability: 0.526
CAL-12T; first compound 2.53 µM
  relative viability: 0.666
NCI-H2085; first compound 0.08 µM
  relative viability: 1.06
NCI-H2085; first compound 0.253 µM
  relative viability: 0.953
NCI-H2085; first compound 0.8 µM
  relative viability: 0.826
NCI-H2085; first compound 2.53 µM
  relative viability: 0.959
NCI-H1793; first compound 0.08 µM
  relative viability: 0.658
NCI-H1793; first compound 0.253 µM
  relative viability: 0.341
NCI-H1793; first compound 0.8 µM
  relative viability: 0.37
NCI-H1793; first compound 2.53 µM
  relative viability: 0.495
NCI-H838; first compound 0.08 µM
  relative viability: 0.91
NCI-H838; first compound 0.253 µM
  relative viability: 0.909
NCI-H838; first compound 0.8 µM
  relative viability: 0.912
NCI-H838; first compound 2.53 µM
  relative viability: 0.956
NCI-H441; first compound 0.08 µM
  relative viability: 1.3
NCI-H441; first compound 0.253 µM
  relative viability: 1.08
NCI-H441; first compound 0.8 µM
  relative viability: 0.994
NCI-H441; first compound 2.53 µM
  relative viability: 1.12
NCI-H2342; first compound 0.08 µM
  relative viability: 0.556
NCI-H2342; first compound 0.253 µM
  relative viability: 0.507
NCI-H2342; first compound 0.8 µM
  relative viability: 0.439
NCI-H2342; first compound 2.53 µM
  relative viability: 0.517
NCI-H1355; first compound 0.08 µM
  relative viability: 0.81
NCI-H1355; first compound 0.253 µM
  relative viability: 0.858
NCI-H1355; first compound 0.8 µM
  relative viability: 0.432
NCI-H1355; first compound 2.53 µM
  relative viability: 0.774
LOU-NH91; first compound 0.08 µM
  relative viability: 0.838
LOU-NH91; first compound 0.253 µM
  relative viability: 0.702
LOU-NH91; first compound 0.8 µM
  relative viability: 0.773
LOU-NH91; first compound 2.53 µM
  relative viability: 0.795
BEN; first compound 0.08 µM
  relative viability: 0.7
BEN; first compound 0.253 µM
  relative viability: 0.588
BEN; first compound 0.8 µM
  relative viability: 0.682
BEN; first compound 2.53 µM
  relative viability: 0.677
